Measurements reported in PubChem BioAssay (NCI).
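The concentration for 50% growth inhibition is given as GI50. TGI denotes the concentration required for complete inhibition of growth.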

Columns and labels:
Test in all cases: NCI tumour cell line growth inhibition, 384-well format
[1] = test system: SF-268 CNS
[2] = test system: U251 glioblastoma
[3] = test system: SF-539 CNS
[4] = test system: PC-3 prostate
[5] = test system: HL-60(TB) leukemia
[6] = test system: RPMI-8226 leukemia
[7] = test system: UO-31 renal
[8] = test system: MDA-MB-435 melanoma
[9] = test system: NCI-H226 lung
[10] = test system: HCT-116 colon
[11] = test system: SW-620 colon
[12] = test system: K-562 leukemia
[13] = test system: SK-MEL-5 melanoma
[14] = test system: SN12C renal
[15] = test system: HCT-15 colon
[16] = test system: BT-549 breast
[17] = test system: SNB-19 CNS
[18] = test system: HS 578T breast
[19] = test system: MALME-3M melanoma
[20] = test system: ACHN renal
[21] = test system: HOP-92 NSCLC
[22] = test system: T-47D breast
[23] = test system: NCI-H522 lung
[24] = test system: OVCAR-3 ovarian
[25] = test system: NCI-H23 lung
[26] = test system: SK-MEL-2 melanoma
[27] = test system: EKVX NSCLC
[28] = test system: SK-OV-3 ovarian
[29] = test system: HCC-2998 colon
[30] = test system: M14 melanoma
[31] = test system: CAKI-1 renal
[32] = test system: NCI-H460 NSCLC
[33] = test system: OVCAR-8 ovarian
[34] = test system: NCI-H322M lung
[35] = test system: MOLT-4 leukemia
[36] = test system: CCRF-CEM leukemia
[37] = test system: RXF 393 renal
[38] = test system: UACC-62 melanoma
[39] = test system: IGROV1 ovarian
[40] = test system: HOP-62 NSCLC
[41] = test system: MDA-MB-231 breast
[42] = test system: A498 renal
[43] = test system: 786-0 renal
[44] = test system: SK-MEL-28 melanoma
[45] = test system: SNB-75 CNS
[46] = test system: TK-10 renal
[47] = test system: OVCAR-4 ovarian

CCc1c(C#N)c(SC(C(N)=O)c2ccccc2)nc(N2CCC(N)CC2)c1C#N (centres undefined)
GI50 [1]: 13.5 µM
TGI [1]: 26.4 µM
GI50 [2]: 12.5 µM
TGI [2]: 25.1 µM
GI50 [3]: 6.59 µM
TGI [3]: 19.3 µM
GI50 [4]: 11.2 µM
TGI [4]: 23.4 µM
GI50 [5]: 2.29 µM
TGI [5]: 9.95 µM
GI50 [6]: 0.201 µM
TGI [6]: 1.38 µM
GI50 [7]: 18.1 µM
TGI [7]: 33 µM
GI50 [8]: 16.8 µM
TGI [8]: 30.5 µM
GI50 [9]: 12.4 µM
TGI [9]: 25 µM
GI50 [10]: 1.84 µM
TGI [10]: 14.5 µM
GI50 [11]: 14.7 µM
TGI [11]: 28.1 µM
GI50 [12]: 5.63 µM
TGI [12]: 18.3 µM
GI50 [13]: 11 µM
TGI [13]: 23 µM
GI50 [14]: 11.5 µM
TGI [14]: 23.7 µM
GI50 [15]: 17.3 µM
TGI [15]: 31.3 µM
GI50 [16]: 10.3 µM
TGI [16]: 22.1 µM
GI50 [17]: 13.9 µM
TGI [17]: 27 µM
GI50 [18]: 14.4 µM
TGI [18]: 27.6 µM
GI50 [19]: 4.17 µM
TGI [19]: 16.9 µM
GI50 [20]: 14.9 µM
TGI [20]: 28.2 µM
GI50 [21]: 13 µM
TGI [21]: 25.7 µM
GI50 [22]: 14.8 µM
TGI [22]: 28 µM
GI50 [23]: 8.33 µM
TGI [23]: 20.9 µM
GI50 [24]: 0.44 µM
TGI [24]: 6.5 µM
GI50 [25]: 11.5 µM
TGI [25]: 23.7 µM
GI50 [26]: 12 µM
TGI [26]: 24.4 µM
GI50 [27]: 15.4 µM
TGI [27]: 28.8 µM
GI50 [28]: 17.9 µM
TGI [28]: 31.9 µM
GI50 [29]: 8.72 µM
TGI [29]: 20.9 µM
GI50 [30]: 10.4 µM
TGI [30]: 22.2 µM
GI50 [31]: 13 µM
TGI [31]: 25.8 µM
GI50 [32]: 11.2 µM
TGI [32]: 23.5 µM
GI50 [33]: 15.6 µM
TGI [33]: 29.1 µM
GI50 [34]: 15.9 µM
TGI [34]: 29.4 µM
GI50 [35]: 4.95 µM
TGI [35]: 15.4 µM
GI50 [36]: 6.52 µM
TGI [36]: 19 µM
GI50 [37]: 16.2 µM
TGI [37]: 29.8 µM
GI50 [38]: 6.36 µM
TGI [38]: 19.7 µM
GI50 [39]: 15 µM
TGI [39]: 28.3 µM
GI50 [40]: 4.92 µM
TGI [40]: 16.3 µM
GI50 [41]: 16.2 µM
TGI [41]: 29.8 µM
GI50 [42]: 12.9 µM
TGI [42]: 25.6 µM
GI50 [43]: 11.7 µM
TGI [43]: 24 µM
GI50 [44]: 7.46 µM
TGI [44]: 20.1 µM
GI50 [45]: 14.9 µM
TGI [45]: 28.2 µM
GI50 [46]: 17.5 µM
TGI [46]: 31.4 µM
GI50 [47]: 13.7 µM
TGI [47]: 26.6 µM
